# Laboratory results reported in PubChem BioAssay (NCI).
#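 96-well plates; 48 h exposure; 5 concentrations. Endpoints by linear interpolation between flanking doses. Not reached: highest tested concentration assigned. GI50 is the concentration that inhibits growth by half. TGI: total growth inhibition.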 Where a SMILES comes first, the peptide text is derived from it. [ ]: non-standard residue; d: D form. The star is where a group is joined. Lauroyl = CCCCCCCCCCCC(=O)*; Aib = CC(C)(N)C(=O)O; βAla = NCCC(=O)O
# Columns and labels:
# Assay in all cases: DTP human tumour cell line panel, 48 h
# HT29 colon = system: HT29 colon
# BT-549 breast = system: BT-549 breast
# A549 NSCLC = system: A549 NSCLC
# HOP-62 NSCLC = system: HOP-62 NSCLC
# HCT-15 colon = system: HCT-15 colon
# OVCAR-8 ovarian = system: OVCAR-8 ovarian
# COLO 205 colon = system: COLO 205 colon
# LOX IMVI melanoma = system: LOX IMVI melanoma
# SK-MEL-5 melanoma = system: SK-MEL-5 melanoma
# CCRF-CEM leukemia = system: CCRF-CEM leukemia
# M14 melanoma = system: M14 melanoma
# RXF 393 renal = system: RXF 393 renal
# ACHN renal = system: ACHN renal
# NCI-H23 lung = system: NCI-H23 lung
# SK-OV-3 ovarian = system: SK-OV-3 ovarian
# SN12C renal = system: SN12C renal
# RPMI-8226 leukemia = system: RPMI-8226 leukemia
# IGROV1 ovarian = system: IGROV1 ovarian
# SF-268 CNS = system: SF-268 CNS
# SW-620 colon = system: SW-620 colon
# U251 CNS = system: U251 CNS
# SK-MEL-28 melanoma = system: SK-MEL-28 melanoma
# OVCAR-5 ovarian = system: OVCAR-5 ovarian
# UACC-257 melanoma = system: UACC-257 melanoma
# 786-0 renal = system: 786-0 renal
# DU-145 prostate = system: DU-145 prostate
# UO-31 renal = system: UO-31 renal
# NCI-H460 lung = system: NCI-H460 lung
# SK-MEL-2 melanoma = system: SK-MEL-2 melanoma
# T-47D breast = system: T-47D breast
# MALME-3M melanoma = system: MALME-3M melanoma
# TK-10 renal = system: TK-10 renal
# SF-295 CNS = system: SF-295 CNS
# SF-539 CNS = system: SF-539 CNS
# CAKI-1 renal = system: CAKI-1 renal
# HS 578T breast = system: HS 578T breast
# MDA-MB-435 = system: MDA-MB-435
# NCI-H226 lung = system: NCI-H226 lung
# SR leukemia = system: SR leukemia
# HCT-116 colon = system: HCT-116 colon
# OVCAR-3 ovarian = system: OVCAR-3 ovarian
# HOP-92 NSCLC = system: HOP-92 NSCLC
# SNB-19 CNS = system: SNB-19 CNS
# SNB-75 CNS = system: SNB-75 CNS
# UACC-62 melanoma = system: UACC-62 melanoma
# A498 renal = system: A498 renal
# OVCAR-4 ovarian = system: OVCAR-4 ovarian
# EKVX NSCLC = system: EKVX NSCLC
# K-562 leukemia = system: K-562 leukemia
# HCC-2998 colon = system: HCC-2998 colon
# NCI/ADR-RES ovarian = system: NCI/ADR-RES ovarian
# KM12 colon = system: KM12 colon
# PC-3 prostate = system: PC-3 prostate
# MCF7 breast = system: MCF7 breast
# NCI-H522 lung = system: NCI-H522 lung
# MDA-MB-231 breast = system: MDA-MB-231 breast
structure (smiles),measurement,setting,value
CCCCCCCCCCCC(=O)NC(C)(C)C(=O)N1CCCC1C(=O)NC(C)(C)C(=O)NC(C)(C)C(=O)N1CCCC1C(=O)NC(C)(C)C(=O)NC(C)(C)C(=O)N1CCCC1C(=O)NC(C)C(=O)NCCC(=O)NC(C)C(=O)NC(C)(C)C(=O)NC(C)(C)C(=O)NC(C)(C)C(=O)NCCC(=O)NC(C)(C)C(=O)NC(C)(C)C(=O)NC(C)(C)C(=O)NC(C)C(=O)NCCC(=O)O (configuration not stated) (Lauroyl-[Aib]P[Aib][Aib]P[Aib][Aib]PA[βAla]A[Aib][Aib][Aib][βAla][Aib][Aib][Aib]A[βAla]-OH; configuration not given here),GI50,HT29 colon,480 nM
same,TGI,HT29 colon,1350 nM
same,GI50,BT-549 breast,151 nM
same,TGI,BT-549 breast,383 nM
same,GI50,A549 NSCLC,310 nM
same,TGI,A549 NSCLC,635 nM
same,GI50,HOP-62 NSCLC,325 nM
same,TGI,HOP-62 NSCLC,683 nM
same,GI50,HCT-15 colon,322 nM
same,TGI,HCT-15 colon,652 nM
same,GI50,OVCAR-8 ovarian,357 nM
same,TGI,OVCAR-8 ovarian,827 nM
same,GI50,COLO 205 colon,344 nM
same,TGI,COLO 205 colon,721 nM
same,GI50,LOX IMVI melanoma,286 nM
same,TGI,LOX IMVI melanoma,535 nM
same,GI50,SK-MEL-5 melanoma,327 nM
same,TGI,SK-MEL-5 melanoma,652 nM
same,GI50,CCRF-CEM leukemia,375 nM
same,TGI,CCRF-CEM leukemia,818 nM
same,GI50,M14 melanoma,387 nM
same,TGI,M14 melanoma,1010 nM
same,GI50,RXF 393 renal,291 nM
same,TGI,RXF 393 renal,527 nM
same,GI50,ACHN renal,341 nM
same,TGI,ACHN renal,667 nM
same,GI50,NCI-H23 lung,303 nM
same,TGI,NCI-H23 lung,583 nM
same,GI50,SK-OV-3 ovarian,325 nM
same,TGI,SK-OV-3 ovarian,623 nM
same,GI50,SN12C renal,296 nM
same,TGI,SN12C renal,672 nM
same,GI50,RPMI-8226 leukemia,166 nM
same,TGI,RPMI-8226 leukemia,561 nM
same,GI50,IGROV1 ovarian,377 nM
same,TGI,IGROV1 ovarian,1170 nM
same,GI50,SF-268 CNS,404 nM
same,TGI,SF-268 CNS,1100 nM
same,GI50,SW-620 colon,400 nM
same,TGI,SW-620 colon,986 nM
same,GI50,U251 CNS,254 nM
same,TGI,U251 CNS,500 nM
same,GI50,SK-MEL-28 melanoma,437 nM
same,TGI,SK-MEL-28 melanoma,1360 nM
same,GI50,OVCAR-5 ovarian,467 nM
same,TGI,OVCAR-5 ovarian,1590 nM
same,GI50,UACC-257 melanoma,387 nM
same,TGI,UACC-257 melanoma,1080 nM
same,GI50,786-0 renal,280 nM
same,TGI,786-0 renal,513 nM
same,GI50,DU-145 prostate,441 nM
same,TGI,DU-145 prostate,1110 nM
same,GI50,UO-31 renal,669 nM
same,TGI,UO-31 renal,1700 nM
same,GI50,NCI-H460 lung,310 nM
same,TGI,NCI-H460 lung,577 nM
same,GI50,SK-MEL-2 melanoma,345 nM
same,TGI,SK-MEL-2 melanoma,765 nM
same,GI50,T-47D breast,440 nM
same,TGI,T-47D breast,1440 nM
same,GI50,MALME-3M melanoma,346 nM
same,TGI,MALME-3M melanoma,796 nM
same,GI50,TK-10 renal,388 nM
same,TGI,TK-10 renal,1180 nM
same,GI50,SF-295 CNS,349 nM
same,TGI,SF-295 CNS,873 nM
same,GI50,SF-539 CNS,298 nM
same,TGI,SF-539 CNS,576 nM
same,GI50,CAKI-1 renal,279 nM
same,TGI,CAKI-1 renal,536 nM
same,GI50,HS 578T breast,271 nM
same,TGI,HS 578T breast,711 nM
same,GI50,MDA-MB-435,422 nM
same,TGI,MDA-MB-435,1040 nM
same,GI50,NCI-H226 lung,435 nM
same,TGI,NCI-H226 lung,1230 nM
same,GI50,SR leukemia,352 nM
same,TGI,SR leukemia,884 nM
same,GI50,HCT-116 colon,300 nM
same,TGI,HCT-116 colon,547 nM
same,GI50,OVCAR-3 ovarian,444 nM
same,TGI,OVCAR-3 ovarian,1130 nM
same,GI50,HOP-92 NSCLC,238 nM
same,TGI,HOP-92 NSCLC,515 nM
same,GI50,SNB-19 CNS,423 nM
same,TGI,SNB-19 CNS,1210 nM
same,GI50,SNB-75 CNS,238 nM
same,TGI,SNB-75 CNS,527 nM
same,GI50,UACC-62 melanoma,325 nM
same,TGI,UACC-62 melanoma,724 nM
same,GI50,A498 renal,375 nM
same,TGI,A498 renal,860 nM
same,GI50,OVCAR-4 ovarian,296 nM
same,TGI,OVCAR-4 ovarian,545 nM
same,GI50,EKVX NSCLC,349 nM
same,TGI,EKVX NSCLC,790 nM
same,GI50,K-562 leukemia,337 nM
same,TGI,K-562 leukemia,822 nM
same,GI50,HCC-2998 colon,533 nM
same,TGI,HCC-2998 colon,1960 nM
same,GI50,NCI/ADR-RES ovarian,370 nM
same,TGI,NCI/ADR-RES ovarian,833 nM
same,GI50,KM12 colon,478 nM
same,TGI,KM12 colon,1320 nM
same,GI50,PC-3 prostate,319 nM
same,TGI,PC-3 prostate,689 nM
same,GI50,MCF7 breast,368 nM
same,TGI,MCF7 breast,906 nM
same,GI50,NCI-H522 lung,307 nM
same,TGI,NCI-H522 lung,621 nM
same,GI50,MDA-MB-231 breast,344 nM
same,TGI,MDA-MB-231 breast,780 nM
